Results published in patent US6605628B1, “Method of using 5-(arysulfonyl)-, 5-(arylsulfanyl)-and 5-(arylsulfanyl)thiazolidine-2,4-diones for inhibition of farnesyl-protein transferase” (Wyeth Holdings Corporation, priority 2001, dated 2003).

Experiments:
FPTase [1] = molecular target: T1, FPTase (Homo sapiens, UniProt P49354+P49356); test: in vitro FTase Inhibition Assay, H-Ras used as substrate for farnesylation; format: biochemical; settings: Table I, read-out: IC50 H-Ras*
FPTase [2] = molecular target: T1, FPTase; test: in vitro FTase Inhibition Assay, K-Ras used as substrate for farnesylation; format: biochemical; settings: Table I

SMILES	melting point	IC50 (FPTase [1])	IC50 (FPTase [2])
O=C1NC(=O)C(CCCC#Cc2cc(Cl)ccc2Cl)(S(=O)(=O)c2ccc(Oc3ccncc3)cc2)S1 (stereo not drawn) [Example 116, 5-[5-(2,5-Dichlorophenyl)pent-4-ynyl]-5-[4-(pyridin-4-yloxy)benzenesulfonyl]thiazolidine-2,4-dione]	179 to 180 °C (dec.)	5 to 10 nM	17 to 40 nM
COc1ccc(S(=O)(=O)C2(CCCC#Cc3ccc(Cl)cc3Cl)SC(=O)NC2=O)cc1 (stereo not drawn) [Example 117, 5-[5-(2,4-Dichlorophenyl)pent-4-ynyl]-5-(4-methoxybenzenesulfonyl)-thiazolidine-2,4-dione]	129 to 133 °C	20 to 30 nM	510 to 1000 nM
COc1ccc(S(=O)(=O)C2(CCCC#Cc3ccc([N+](=O)[O-])cc3)SC(=O)NC2=O)cc1 (stereo not drawn) [Example 121, 5-(4-Methoxybenzenesulfonyl)-5-[5-(4-nitrophenyl)pent-4-ynyl]thiazolidine-2,4-dione]	156 to 158 °C	120 nM	1600 nM
Cc1ccc([N+](=O)[O-])cc1C#CCCCC1(S(=O)(=O)c2ccc(Oc3ccccc3)cc2)SC(=O)NC1=O (stereo not drawn) [Example 124]	203 to 204 °C	52 to 80 nM	910 to 1300 nM
Cc1ccc([N+](=O)[O-])cc1C#CCCCC1(S(=O)(=O)c2cccc3ccccc23)SC(=O)NC1=O (stereo not drawn) [Example 126, 5-[5-(2-Methyl-5-nitrophenyl)-pent-4-ynyl]-5-(naphthalene-1-sulfonyl)-thiazolidine-2,4-dione]	168 to 172 °C	90 nM	1700 nM
Cc1ccc([N+](=O)[O-])cc1C#CCCCC1(S(=O)(=O)c2ccc3ccccc3c2)SC(=O)NC1=O (stereo not drawn) [Example 127, 5-[5-(2-Methyl-5-nitrophenyl)pent-4-ynyl]-5-(naphthalene-2-sulfonyl)-thiazolidine-2,4-dione]	197 to 200 °C	120 to 140 nM	1300 to 1500 nM
Cc1ccc(C)c(C#CCCCC2(S(=O)(=O)c3ccc(I)cc3)SC(=O)NC2=O)c1 (stereo not drawn) [Example 134, 5-[5-(2,5-Dimethylphenyl)pent-4-ynyl]-5-(4-iodobenzenesulfonyl)-thiazolidine-2,4-dione]	129 to 130 °C	14 to 850 nM	430 to 680 nM
COc1ccc(S(=O)(=O)C2(CCCC#Cc3ccc(C)cc3C)SC(=O)NC2=O)cc1 (stereo not drawn) [Example 136, 5-[5-(2,4-Dimethylphenyl)pent-4-ynyl]-5-(4-methoxybenzenesulfonyl)-thiazolidine-2,4-dione]	155 to 156 °C	43 to 50 nM	1000 to 1900 nM
Cc1ccc(C#CCCCC2(S(=O)(=O)c3ccc(I)cc3)SC(=O)NC2=O)c(C)c1 (stereo not drawn) [Example 137, 5-[5-(2,4-Dimethylphenyl)pent-4-ynyl]-5-(4-iodobenzenesulfonyl)-thiazolidine-2,4-dione]	153 to 154 °C	21 to 400 nM	37 to 800 nM
Cc1cc(Br)ccc1C#CCCCC1(S(=O)(=O)c2ccc(I)cc2)SC(=O)NC1=O (stereo not drawn) [Example 144, 5-[5-(4-Bromo-2-methylphenyl)pent-4-ynyl]-5-(4-iodobenzenesulfonyl)-thiazolidine-2,4-dione]	146 to 147 °C	40 to 41 nM	320 to 550 nM
COc1ccc(S(=O)(=O)C2(CCCC#Cc3cc(C(=O)NC(C)(C)C)ccc3C)SC(=O)NC2=O)cc1 (stereo not drawn) [Example 152, N-tert-Butyl-3-{5-[5-(4-methoxybenzenesulfonyl)-2,4-dioxothiazol-idin-5-yl]pent-1-ynyl}-4-methyl-benzamide]	205 to 208 °C	11 to 16 nM	100 to 230 nM
COc1ccc(S(=O)(=O)C2(CCCC#Cc3ccc(C#N)cc3)SC(=O)NC2=O)cc1 (stereo not drawn) [Example 158, 4-(5-[5-(4-Methoxybenzenesulfonyl)-2,4-dioxo-thiazolidin-5-yl]pent-1-ynyl}benzonitrile]	174 to 178 °C	150 nM	3800 nM
Cc1ccc(S(=O)(=O)C2(CCCC#Cc3ccc(S(C)(=O)=O)cc3)SC(=O)NC2=O)cc1 (stereo not drawn) [Example 159, 5-[5-(4-Methanesulfonylphenyl)-pent-4-ynyl]-5-(toluene-4-sulfonyl)-thiazolidine-2,4-dione]	190 to 193 °C	650 nM	> 10000 nM

Continued, values first:

melting point	IC50 (FPTase [1])	IC50 (FPTase [2])	SMILES
126 to 130 °C	70 nM	1900 nM	COc1ccc(S(=O)(=O)C2(CCCC#Cc3cccc([N+](=O)[O-])c3)SC(=O)NC2=O)cc1 (stereo not drawn) [Example 118, 5-(4-Methoxybenzenesulfonyl)-5-[5-(3-nitrophenyl)pent-4-ynyl]thiazolidine-2,4-dione]
190 to 191 °C	130 to 140 nM	1300 to 1700 nM	O=C1NC(=O)C(CCCC#Cc2cccc([N+](=O)[O-])c2)(S(=O)(=O)c2ccc(Oc3ccccc3)cc2)S1 (stereo not drawn) [Example 119, 5-[5-(3-Nitrophenyl)pent-4-ynyl]-5-(4-phenoxybenzenesulfonyl)thiazolidine-2,4-dione]
205 to 207 °C	18 to 32 nM	530 to 1000 nM	O=C1NC(=O)C(CCCC#Cc2ccc([N+](=O)[O-])cc2)(S(=O)(=O)c2ccc(I)cc2)S1 (stereo not drawn) [Example 120, 5-(4-Iodobenzenesulfonyl)-5-[5-(4-nitrophenyl)pent-4-ynyl]thiazolidine-2,4-dione]
188 to 190 °C	30 nM	400 nM	Cc1ccc([N+](=O)[O-])cc1C#CCCCC1(S(=O)(=O)c2ccc(I)cc2)SC(=O)NC1=O (stereo not drawn) [Example 125, 5-(4-Iodobenzenesulfonyl)-5-[5-(2-methyl-5-nitrophenyl)pent-4-ynyl]-thiazolidine-2,4-dione]
210 to 212 °C	100 nM	600 to 790 nM	Cc1cc([N+](=O)[O-])ccc1C#CCCCC1(S(=O)(=O)c2ccc(Oc3ccccc3)cc2)SC(=O)NC1=O (stereo not drawn) [Example 129, 5-[5-(2-Methyl-4-nitrophenyl)pent-4-ynyl]-5-(4-phenoxybenzenesulfonyl)-thiazolidine-2,4-dione]
149 to 150 °C	20 to 32 nM	1900 to 2100 nM	COc1ccc(S(=O)(=O)C2(CCCC#Cc3cc(C)ccc3C)SC(=O)NC2=O)cc1 (stereo not drawn) [Example 135, 5-[5-(2,5-Dimethylphenyl)pent-4-ynyl]-5-(4-methoxybenzenesulfonyl)-thiazol idine-2 ,4-dione]
121 to 122 °C	23 to 32 nM	300 to 420 nM	COc1ccc(S(=O)(=O)C2(CCCC#Cc3cc(Cl)ccc3C)SC(=O)NC2=O)cc1 (stereo not drawn) [Example 138, 5-[5-(5-Chloro-2-methylphenyl)pent-4-ynyl]-5-(4-methoxybenzene-sulfonyl)-thiazolidine-2,4-dione]
196 °C (dec.)	140 to 170 nM	600 to 5000 nM	Cc1ccc(Cl)cc1C#CCCCC1(S(=O)(=O)c2ccc(OC(F)(F)F)cc2)SC(=O)NC1=O (stereo not drawn) [Example 139, 5-[5-(5-Chloro-2-methylphenyl)pent-4-ynyl]-5-(4-trifluoromethoxybenzene-sulfonyl)-thiazolidine-2,4-dione]
93 to 99 °C	21 to 32 nM	300 to 340 nM	Cc1cc(Cl)ccc1C#CCCCC1(S(=O)(=O)c2ccc(I)cc2)SC(=O)NC1=O (stereo not drawn) [Example 141, 5-(5-(4-Chloro-2-methylphenyl)-pent-4-ynyl]-5-(4-iodobenzene-sulfonyl)-thiazolidine-2,4-dione]
172 to 175 °C	4.5 to 120 nM	23 to 31 nM	Cc1ccc(NC(=O)OC(C)(C)C)cc1C#CCCCC1(S(=O)(=O)c2ccc(I)cc2)SC(=O)NC1=O (stereo not drawn) [Example 148, (3-{5-[5-(4-Iodobenzenesulfonyl)-2,4-dioxothiazolidin-5-yl]-pent-1-ynyl}-4-methylphenyl)carbamic Acid tert-Butyl Ester]
116 to 118 °C	7.4 to 32 nM	16 to 68 nM	COc1ccc(S(=O)(=O)C2(CCCC#Cc3cc(NC(=O)OC(C)(C)C)ccc3C)SC(=O)NC2=O)cc1 (stereo not drawn) [Example 150, (3-{5-[5-(4-Methoxybenzenesulfonyl)-2,4-dioxothiazolidin-5-yl]pent-1-ynyl}-4-methylphenyl)carbamic Acid tert-Butyl Ester]
160 to 163 °C	170 to 200 nM	1000 to 6100 nM	COc1ccc(S(=O)(=O)C2(CCCC#Cc3ccc(C(F)(F)F)cc3)SC(=O)NC2=O)cc1 (stereo not drawn) [Example 153, 5-(4-Methoxybenzenesulfonyl)-5-[5-(4-trifluoromethylphenyl)pent-4-ynyl]thiazolidine-2,4-dione]
120 to 123 °C	70 to 150 nM	1000 to 2500 nM	COc1ccc(S(=O)(=O)C2(CCCC#Cc3ccc(OC(F)(F)F)cc3)SC(=O)NC2=O)cc1 (stereo not drawn) [Example 154, 5-(4-Methoxybenzenesulfonyl)-5-[5-(4-trifluoromethoxyphenyl)pent-4-ynyl]thiazolidine-2,4-dione]
119 to 121 °C	10 to 320 nM	420 to 440 nM	COC(=O)c1ccc(C)c(C#CCCCC2(S(=O)(=O)c3ccc(OC)cc3)SC(=O)NC2=O)c1 (stereo not drawn) [Example 155, 3-{5-[5-(4-Methoxybenzenesulfonyl)-2,4-dioxo-thiazolidin-5-yl]-pent-1-ynyl}-4-methylbenzoic Acid Methyl Ester]
134 to 138 °C	270 nM	5000 nM	Cc1ccc(S(=O)(=O)C2(CCCC#Cc3ccc(C(C)(C)C)cc3)SC(=O)NC2=O)cc1 (stereo not drawn) [Example 157, 5-[5-(4-tert-Butylphenyl)pent-4-ynyl]-5-(toluene-4-sulfonyl)thiazolidine-2,4-dione]
194 to 195 °C	1210 nM	4000 nM	O=C1NC(=O)C(CCCC#Cc2ccc(-n3cccc3)cc2)(S(=O)(=O)c2ccc(I)cc2)S1 (stereo not drawn) [Example 162, 5-(4-Iodo-benzenesulfonyl)-5-[5-(4-pyrrol-1-yl-phenyl)pent-4-ynyl]-thiazolidine-2,4-dione]
